# Measured values published in patent publication US20090192147A1, “[a]-FUSED INDOLE COMPOUNDS, THEIR USE AS mTOR KINASE AND PI3 KINASE INHIBITORS, AND THEIR [sequence]” (Wyeth, priority 2008, published 2009).
# Like-named read-outs stand apart in the source and are kept apart here.
# Experiments:
# human TOR (FLAG-TOR) = target: T1, human TOR (FLAG-TOR) (Homo sapiens, UniProt P42345); assay: mTOR kinase assay, purified enzyme, DELFIA format; format: biochemical; settings: 100 μM ATP, His6-S6K substrate
# T1 construct: FLAG
# PI3K-alpha = PI3K-alpha (Homo sapiens, UniProt P42336); assay: Fluorescence polarization assay for PI3K; format: biochemical; settings: 25 μM ATP, diC8-PI(4,5)P2 substrate; read-out: PI3 Kinase α IC50
# Description: (§1) Fluorescence Polarization Assay for PI3K
# (§2) Reaction Buffer: 20 mM HEPES, pH 7.5, 2 mM MgCl2, 0.05% CHAPS; and 0.01% BME (added fresh) Stop/Detection Buffer: 100 mM HEPES, pH 7.5, 4 mM EDTA, 0.05% CHAPS; ATP 20 mM in water; PIP2 (diC8, Echelon, Salt Lake City Utah, cat# P-4508) 1 mM in water (MW=856.5); GST-GRP 1.75 mg/mL or 1.4 mg/mL in 10% glycerol; Red detector (TAMRA) 2.5 μM; Plate: Nunc 384 well black polypropylene fluorescence plate.
# (§3) PI3-Kinase reactions were performed in […], pH 7, […], and 25 μM ATP, with diC8-PI(4,5)P2 (Echelon, Salt Lake City Utah) as substrate. Nunc 384 well black polypropylene fluorescent plates were used for PI3K assays. Reactions were quenched by the addition of EDTA to a final concentration of […]. Final reaction volumes were 10 μl. For evaluation of PI3K inhibitors, 5 ng of enzyme (PI3K-alpha, beta, gamma, or delta) and 2.5 μM of substrate was used per […] reaction volume, and inhibitor concentrations ranged from 100 pM to 20 μM; the final level of DMSO in reactions never exceeded 2%. Reactions were allowed to proceed for one hour at 25° C. After 1 hour, GST-tagged GRP1 (general receptor for phosphoinositides) PH domain fusion protein was added to a final concentration of 100 nM, and BODIPY-TMRI(1,3,4,5)P4 (Echelon) was also added to a final concentration of 5 nM. Final sample volumes were 25 μl with a final DMSO concentration of 0.8%. Assay Plates were read on PerkinElmer Envision plate readers with appropriate filters for Tamra [BODIPY-TMRI(1,3,4,5)P4]. Data obtained were used to calculate enzymatic activity and enzyme inhibition by inhibitor compounds.
# PI3K-gamma = PI3K-gamma (Homo sapiens, UniProt P48736); assay: Fluorescence polarization assay for PI3K; format: biochemical; settings: 25 μM ATP, diC8-PI(4,5)P2 substrate; read-out: PI3 Kinase γ IC50
# Description: as §1, §2, §3
# [1] = test system: OVCAR3 ovarian tumor cell line; assay: In vitro cell culture growth assay (MTS); format: cell-based; settings: Homo sapiens, OVCAR-3, 72 h, growth inhibition, three days after drug treatment
# Description: (§4) Cell lines used were human adenocarcinoma (LoVo), pancreatic […], prostate (LNCap), breast (MDA468, MCF7), colon (HCT116), renal (HTB44 A498), and ovarian (OVCAR3) tumor cell lines. The tumor cells were plated in 96-well culture plates at approximately 3000 cells per well. One day following plating, various concentrations of PI3K inhibitors in DMSO were added to cells (final DMSO concentration in cell assays was 0.25%). Three days after drug treatment, viable cell densities were determined by cell mediated metabolic conversion of the dye MTS, a well-established indicator of cell proliferation in vitro. Cell growth assays were performed using kits purchased from Promega Corporation (Madison, Wis.), following the protocol provided by the vendor. Measuring absorbance at 490 nm generated the MTS assay results. Compound effect on cell proliferation was assessed relative to untreated control cell growth.
# PC3-MM2 cells = assay: In vitro cell culture growth assay (MTS); format: cell-based; settings: Homo sapiens, PC3MM2, 72 h, growth inhibition, three days after drug treatment
# Description: as §4
# [2] = test system: human tumor xenograft models; settings: cited from earlier work
# mTOR enzymes = mTOR enzymes (Homo sapiens, UniProt P42345); settings: read-out: mTOR enzymes IC50; literature value; cited from earlier work
# [3] = test system: acute lymphoblastic leukemia; settings: NOS/SCID mouse; cited from earlier work
# Sequence of PI3K-alpha (P42336 whole entry, species assumed): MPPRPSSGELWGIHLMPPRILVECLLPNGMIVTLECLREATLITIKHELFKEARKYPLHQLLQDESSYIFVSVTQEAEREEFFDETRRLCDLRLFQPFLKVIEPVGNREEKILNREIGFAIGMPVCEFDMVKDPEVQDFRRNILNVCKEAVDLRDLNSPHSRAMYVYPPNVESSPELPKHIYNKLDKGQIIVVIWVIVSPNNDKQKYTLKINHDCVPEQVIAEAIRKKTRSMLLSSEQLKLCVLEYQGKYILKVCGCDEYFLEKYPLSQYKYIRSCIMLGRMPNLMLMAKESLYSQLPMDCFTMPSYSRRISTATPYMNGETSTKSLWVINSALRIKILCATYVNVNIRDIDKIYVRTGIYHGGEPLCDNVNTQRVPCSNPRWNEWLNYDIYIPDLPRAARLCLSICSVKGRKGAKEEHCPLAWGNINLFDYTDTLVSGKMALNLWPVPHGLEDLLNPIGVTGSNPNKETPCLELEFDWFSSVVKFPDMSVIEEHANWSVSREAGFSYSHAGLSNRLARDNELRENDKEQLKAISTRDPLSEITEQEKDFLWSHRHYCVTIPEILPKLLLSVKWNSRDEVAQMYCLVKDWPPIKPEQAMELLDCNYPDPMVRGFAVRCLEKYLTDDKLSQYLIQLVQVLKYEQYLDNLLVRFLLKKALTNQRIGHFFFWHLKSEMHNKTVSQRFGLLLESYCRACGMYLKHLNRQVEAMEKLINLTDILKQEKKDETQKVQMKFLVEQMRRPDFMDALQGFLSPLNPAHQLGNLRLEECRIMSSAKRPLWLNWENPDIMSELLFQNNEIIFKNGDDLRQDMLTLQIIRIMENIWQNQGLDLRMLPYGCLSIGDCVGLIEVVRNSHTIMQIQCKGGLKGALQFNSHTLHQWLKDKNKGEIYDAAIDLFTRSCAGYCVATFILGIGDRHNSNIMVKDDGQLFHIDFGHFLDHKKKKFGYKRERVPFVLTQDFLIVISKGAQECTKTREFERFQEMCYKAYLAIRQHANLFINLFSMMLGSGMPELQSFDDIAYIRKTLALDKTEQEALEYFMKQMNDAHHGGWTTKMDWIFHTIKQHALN
# Sequence of PI3K-alpha (P27986 whole entry partner, species assumed): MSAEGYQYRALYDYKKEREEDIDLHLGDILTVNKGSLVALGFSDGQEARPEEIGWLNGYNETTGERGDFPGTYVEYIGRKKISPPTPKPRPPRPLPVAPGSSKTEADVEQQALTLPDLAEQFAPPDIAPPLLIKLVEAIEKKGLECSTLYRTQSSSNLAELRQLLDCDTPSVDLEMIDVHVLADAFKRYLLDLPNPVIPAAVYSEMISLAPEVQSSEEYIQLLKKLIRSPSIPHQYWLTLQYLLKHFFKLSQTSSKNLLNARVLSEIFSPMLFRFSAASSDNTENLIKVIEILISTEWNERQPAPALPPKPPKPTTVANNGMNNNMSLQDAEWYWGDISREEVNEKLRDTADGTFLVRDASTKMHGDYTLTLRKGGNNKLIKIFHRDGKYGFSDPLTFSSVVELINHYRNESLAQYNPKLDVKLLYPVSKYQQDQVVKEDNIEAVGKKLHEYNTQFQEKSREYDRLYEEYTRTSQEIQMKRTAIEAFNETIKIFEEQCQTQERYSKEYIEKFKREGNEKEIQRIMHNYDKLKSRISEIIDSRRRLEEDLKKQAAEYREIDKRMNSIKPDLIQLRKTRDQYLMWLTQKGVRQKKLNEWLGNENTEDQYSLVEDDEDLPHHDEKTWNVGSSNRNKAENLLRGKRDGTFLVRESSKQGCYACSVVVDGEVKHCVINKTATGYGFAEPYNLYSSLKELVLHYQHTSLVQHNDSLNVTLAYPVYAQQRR
# Sequence of PI3K-gamma (P48736 whole entry): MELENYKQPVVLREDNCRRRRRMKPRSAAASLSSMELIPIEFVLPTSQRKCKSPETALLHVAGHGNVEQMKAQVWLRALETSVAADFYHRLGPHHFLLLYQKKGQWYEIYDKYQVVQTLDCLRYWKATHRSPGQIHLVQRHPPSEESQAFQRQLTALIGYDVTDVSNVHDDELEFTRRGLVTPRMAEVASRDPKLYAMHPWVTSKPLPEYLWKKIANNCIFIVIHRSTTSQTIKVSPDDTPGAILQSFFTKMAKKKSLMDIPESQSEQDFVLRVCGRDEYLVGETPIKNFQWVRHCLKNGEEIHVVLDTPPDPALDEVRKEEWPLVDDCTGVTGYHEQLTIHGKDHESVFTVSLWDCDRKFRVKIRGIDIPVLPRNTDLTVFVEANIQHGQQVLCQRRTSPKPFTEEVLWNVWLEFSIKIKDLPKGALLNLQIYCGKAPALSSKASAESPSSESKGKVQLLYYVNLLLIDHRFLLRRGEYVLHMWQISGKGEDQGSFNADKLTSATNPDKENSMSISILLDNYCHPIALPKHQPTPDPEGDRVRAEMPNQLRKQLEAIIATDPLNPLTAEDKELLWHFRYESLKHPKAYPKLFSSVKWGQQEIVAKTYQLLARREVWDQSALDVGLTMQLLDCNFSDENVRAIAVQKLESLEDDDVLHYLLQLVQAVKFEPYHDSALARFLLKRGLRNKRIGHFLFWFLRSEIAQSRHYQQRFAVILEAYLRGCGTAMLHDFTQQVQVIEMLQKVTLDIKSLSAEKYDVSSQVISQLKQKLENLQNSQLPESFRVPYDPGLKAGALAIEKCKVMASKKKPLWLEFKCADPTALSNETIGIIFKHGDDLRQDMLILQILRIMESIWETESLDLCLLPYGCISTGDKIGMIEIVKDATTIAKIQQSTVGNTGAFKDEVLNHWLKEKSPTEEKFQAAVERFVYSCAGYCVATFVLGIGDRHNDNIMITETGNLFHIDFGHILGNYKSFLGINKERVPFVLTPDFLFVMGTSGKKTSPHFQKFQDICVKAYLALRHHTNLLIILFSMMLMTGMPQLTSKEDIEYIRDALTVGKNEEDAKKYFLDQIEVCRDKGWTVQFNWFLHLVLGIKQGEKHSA
Compound,IC50 (human TOR (FLAG-TOR)),IC50 (PI3K-alpha),IC50 (PI3K-gamma),IC50 [1],IC50 (PC3-MM2 cells),activity in human tumor xenograft models ([2]; prostrate (PC-3) and glioblastoma (U-87)),"tumor growth in mouse human xenograft cancer models ([2]; chronic oral administration, 400 mg/kg, A549, PC-3, WiDr)",IC50 (mTOR enzymes),activity in xenograft mouse model of acute lymphoblastic leukemia [3],"activity in human tumor xenograft models ([2]; I.P. dosing in mice, U87MG, PC3, MDA-MB-468, MDA-MB-435, HCT 116, SKOV3, IGROV-1)"
"COc1ccc2c(c1)c(/C=C1\Oc3cc(O)ccc3C1=O)c1n2CCNC1 [L, (2Z)-6-hydroxy-2-[(8-methoxy-1,2,3,4-tetrahydropyrazino[1,2-a]indol-10-yl)methylene]-1-benzofuran-3(2H)-one]",0.32 µM,0.0165 µM,0.116 µM,0.78 µM,1.51 µM,,,,,
"Cn1c(=O)n(-c2ccc(C(C)(C)C#N)cc2)c2c3cc(-c4cnc5ccccc5c4)ccc3ncc21 [NVP-BEZ-235, 2-methyl-2-(4-(3-methyl-2-oxo-8-(quinolin-3-yl)-2,3-dihydro-1H-imidazo[4,5-c]quinolin-1-yl)phenyl)propanenitrile]",,,,,,demonstrated activity,,,,
"FC(F)c1nc2ccccc2n1-c1nc(N2CCOCC2)nc(N2CCOCC2)n1 [ZSTK474, 2-(2-difluoromethylbenzoimidazol-1-yl)-4,6-dimorpholino-1,3,5-triazine]",,,,,,,completely inhibited growth,> 10 µM,,
CO[C@H]1C[C@@H]2CC[C@@H](C)[C@@](O)(O2)C(=O)C(=O)N2CCCC[C@H]2C(=O)O[C@H]([C@H](C)C[C@@H]2CC[C@@H](OC(=O)C(C)(CO)CO)[C@H](OC)C2)CC(=O)[C@H](C)/C=C(\C)[C@@H](O)[C@@H](OC)C(=O)[C@H](C)C[C@H](C)/C=C/C=C/C=C/1C [Torisel],,,,,,,,,active,
"Oc1cccc(-c2nc(N3CCOCC3)c3oc4ncccc4c3n2)c1 [Example P1103, 3-(4-(4-morpholinyl)pyrido[3′,2′:4,5]furo[3,2-d]pyrimidin-2-yl)phenol]",,,,,,,,,,demonstrated activity
"COc1ccc2c(c1)c(/C=C1\Oc3cc(O)ccc3C1=O)c1n2CCC1 [O, (2Z)-6-hydroxy-2-[(7-methoxy-2,3-dihydro-1H-pyrrolo[1,2-a]indol-9-yl)methylene]-1-benzofuran-3(2H)-one]",0.066 µM,0.014 µM,0.076 µM,3.72 µM,3.4 µM,,,,,

# More lines, main results first:
IC50 (human TOR (FLAG-TOR)),IC50 (PI3K-alpha),IC50 (PI3K-gamma),IC50 [1],IC50 (PC3-MM2 cells),Compound,activity in human tumor xenograft models ([2]; prostrate (PC-3) and glioblastoma (U-87)),"tumor growth in mouse human xenograft cancer models ([2]; chronic oral administration, 400 mg/kg, A549, PC-3, WiDr)",IC50 (mTOR enzymes),activity in xenograft mouse model of acute lymphoblastic leukemia [3],"activity in human tumor xenograft models ([2]; I.P. dosing in mice, U87MG, PC3, MDA-MB-468, MDA-MB-435, HCT 116, SKOV3, IGROV-1)"
< 0.032 µM,0.0025 µM,0.0245 µM,4.95 µM,> 10 µM,"COc1ccc2c(c1)c(/C=C1\Oc3cc(O)cc(O)c3C1=O)c1n2CCNC1=O [N, 10-[(Z)-(4,6-dihydroxy-3-oxo-1-benzofuran-2(3H)-ylidene)methyl]-8-methoxy-3,4-dihydropyrazino[1,2-a]indol-1(2H)-one]",,,,,
0.009 µM,0.006 µM,0.0305 µM,1.67 µM,1.61 µM,"COc1ccc2c(c1)c(/C=C1\Oc3cc(O)cc(O)c3C1=O)c1n2CCN(C)C1 [P, (2Z)-4,6-dihydroxy-2-[(8-methoxy-2-methyl-1,2,3,4-tetrahydropyrazino[1,2-a]indol-10-yl)methylene]-1-benzofuran-3(2H)-one]",,,,,
0.114 µM,0.0215 µM,0.0765 µM,5.28 µM,> 10 µM,"COc1ccc2c(c1)c(/C=C1\Oc3cc(O)ccc3C1=O)c1n2CCOC1=O [J, 10-[(Z)-(6-hydroxy-3-oxo-1-benzofuran-2(3H)-ylidene)methyl]-8-methoxy-3,4-dihydro-1H-[1,4]oxazino[4,3-a]indol-1-one]",,,,,
0.024 µM,0.0011 µM,0.009 µM,,5.63 µM,"COc1ccc2c(c1)c(/C=C1\Oc3cc(O)cc(O)c3C1=O)c1n2CCOC1=O [Example I, 10-[(Z)-(4,6-dihydroxy-3-oxo-1-benzofuran-2(3H)-ylidene)methyl]-8-methoxy-3,4-dihydro-1H-[1,4]oxazino[4,3-a]indol-1-one]",,,,,
0.009 µM,0.0055 µM,0.116 µM,1.62 µM,2.19 µM,"COc1ccc2c(c1)c(/C=C1\Oc3cc(O)cc(O)c3C1=O)c1n2CCNC1 [K, (2Z)-4,6-dihydroxy-2-[(8-methoxy-1,2,3,4-tetrahydropyrazino[1,2-a]indol-10-yl)methylene]-1-benzofuran-3(2H)-one]",,,,,
< 0.032 µM,0.0045 µM,0.057 µM,1 µM,1.91 µM,"COc1ccc2c(c1)c(/C=C1\Oc3cc(O)cc(O)c3C1=O)c1n2CCOC1 [M, (2Z)-4,6-dihydroxy-2-[(8-methoxy-3,4-dihydro-1H-[1,4]oxazino[4,3-a]indol-10-yl)methylene]-1-benzofuran-3(2H)-one]",,,,,
0.004 µM,0.003 µM,0.027 µM,3.6 µM,5.05 µM,"COc1ccc2c(c1)c(/C=C1\Oc3cc(O)cc(O)c3C1=O)c1n2CCN(C)C1=O [Q, 10-[(Z)-(4,6-dihydroxy-3-oxo-1-benzofuran-2(3H)-ylidene)methyl]-8-methoxy-2-methyl-3,4-dihydropyrazino[1,2-a]indol-1(2H)-one]",,,,,
